From US10851092B2, “Pyridine compound” (Daiichi Sankyo Company, Limited, priority 2016, dated 2020)
Where two headings read alike, the source gives them in different places.

Tests used:
RET-wild type = RET-wild type (Homo sapiens (Human), UniProt P07949); assay: Evaluation of RET kinase inhibiting activity (cell system), Ba/F3 cells overexpressing Myc tagged RET; type: cell-based; details: Ba/F3, compound 2 hours, read-out: RET-wild type IC50
Protocol: (§1) Thereafter, 1 mL of Cell Lysis Buffer (Cell signaling technology, #9803), a single tablet of Phosphatase inhibitor (Roche, #04906837001), and a single tablet of Protease inhibitor (Roche, #0469312400) were added to 9 mL of MilliQ, and 20 ul of the obtained mixture was then added to each well. The mixture thus obtained was placed on ice for 20 minutes, so that the cells were lysed. A 5-ul aliquot was taken from the cell lysate, and thereafter, 64 nl of Myc antibody (Cell signaling technology, #3946) and Streptavidin Donor beads in an equal amount of 102 nl of P-Tyr-100 Acceptor beads included in the Alpha Screen Phosphotyrosine (P-Tyr-100) assay kit (Perkin Elmer, #6760620C) were added to the aliquot in accordance with the instruction manual included with the aforementioned assay kit. The obtained mixture was reacted at room temperature overnight, and a RET kinase inhibiting activity rate was then measured using Envision.

[1] = tested on: phosphorylated RET (ETV-RET) in Ba/F3-RET tumors; assay: One shot PKPD analysis, Ba/F3-RET tumors; type: in vivo, mice
Protocol: Murine pro-B cells, Ba/F3, expressing fusion protein of ets variant 6 (ETV)-RET and ETV-RET-V804L were constructed by Daiichi Sankyo RD Novare Co., Ltd., and cultivated in RPM11640 medium (Thermo Fisher Scientific K.K.) supplemented with 10% (v/v) heat-inactivated fetal bovine serum (FBS, GE Healthcare) and 1.5 µg/mL puromycin in a CO2 incubator that was set at 37° C. with a 5% CO2 atmosphere. The cells were suspended in DPBS and inoculated subcutaneously into mice at 1.0×10^7 cells per mouse. After the tumor had reached a size of 100 to 200 mm^3, the mice were randomized based on tumor diameter and the test compounds (10 mg/kg, Compound 229 or Example 3) which were dissolved in 1% (w/v) hydroxypropyl methylcellulose solution were administrated orally. Control group was administrated with 1% (w/v) hydroxypropyl methylcellulose solution. […] Protein concentration of tumor lysate was quantified by colorimetric reagent (Thermo Fisher Scientific K.K.) and all were diluted to the same concentration by lysis buffer. […] The chemiluminescence reaction of HRP and the substrate (Pierce ECL Plus Western Blotting Substrate, Cat. No. 32132, Thermo Fisher Scientific K.K.) was detected by an image scanner Typhoon 9400 (GE Healthcare). Signal intensities fo phosphorylated RET (pRET) and RET were quantified and calculated as following methods. […]

RET-V804L = RET-V804L (Homo sapiens (Human), UniProt P07949, V804L); assay: Evaluation of RET kinase inhibiting activity (cell system), Ba/F3 cells overexpressing RET (V804L) mutant; type: cell-based; details: Ba/F3, compound 2 hours
RET-V804L, sequence (P07949 29-1114 V804L): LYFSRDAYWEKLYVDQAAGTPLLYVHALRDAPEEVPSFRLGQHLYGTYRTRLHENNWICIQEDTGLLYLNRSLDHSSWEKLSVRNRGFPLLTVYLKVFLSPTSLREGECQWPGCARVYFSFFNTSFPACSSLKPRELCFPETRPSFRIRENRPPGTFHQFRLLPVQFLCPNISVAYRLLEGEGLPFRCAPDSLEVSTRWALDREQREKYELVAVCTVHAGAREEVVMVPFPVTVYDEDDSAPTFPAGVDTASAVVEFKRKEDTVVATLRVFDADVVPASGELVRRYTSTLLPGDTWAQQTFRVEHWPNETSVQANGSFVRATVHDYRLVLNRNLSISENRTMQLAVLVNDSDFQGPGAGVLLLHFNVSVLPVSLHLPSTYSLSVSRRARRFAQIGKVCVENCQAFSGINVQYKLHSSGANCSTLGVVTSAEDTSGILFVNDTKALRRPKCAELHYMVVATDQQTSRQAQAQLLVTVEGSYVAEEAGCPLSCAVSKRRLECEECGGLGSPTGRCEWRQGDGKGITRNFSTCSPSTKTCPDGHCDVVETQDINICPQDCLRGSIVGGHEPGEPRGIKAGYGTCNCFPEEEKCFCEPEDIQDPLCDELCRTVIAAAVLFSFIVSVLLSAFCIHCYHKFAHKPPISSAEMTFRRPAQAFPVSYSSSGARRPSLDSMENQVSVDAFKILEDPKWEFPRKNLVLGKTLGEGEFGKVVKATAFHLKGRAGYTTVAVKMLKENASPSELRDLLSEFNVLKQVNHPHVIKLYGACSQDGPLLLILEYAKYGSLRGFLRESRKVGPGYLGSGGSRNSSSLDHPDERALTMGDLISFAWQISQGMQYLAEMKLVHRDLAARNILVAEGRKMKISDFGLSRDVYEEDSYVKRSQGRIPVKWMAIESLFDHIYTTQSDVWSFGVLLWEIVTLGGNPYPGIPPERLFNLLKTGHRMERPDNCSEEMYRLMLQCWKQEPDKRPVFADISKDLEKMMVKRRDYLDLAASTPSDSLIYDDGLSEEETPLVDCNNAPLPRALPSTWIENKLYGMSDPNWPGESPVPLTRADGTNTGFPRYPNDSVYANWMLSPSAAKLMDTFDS
Protocol: as §1

[2] = target: RET-Gatekeeper mutation (V804L) recombinant protein (Homo sapiens (Human), UniProt P07949, V804L); assay: Evaluation of RET kinase inhibiting activity (cell-free system), gatekeeper mutant; type: biochemical
RET-Gatekeeper mutation (V804L) recombinant protein, sequence (P07949 29-1114 V804L): as above
Protocol: (§2) 19 uL of the RET kinase solution was added to each of lines A to P of a 384-well plate, and thereafter, the test compound at each concentration was added to lines C to N, and further, 1 uL of dimethyl sulfoxide (hereinafter referred to as DMSO) was added to each of lines A, B, O and P. Thereafter, the obtained mixtures were each preincubated at room temperature for 20 minutes. Furthermore, a substrate solution A containing ATP (final concentration: 1 mM) and a substrate solution B containing no ATP, both in addition to a reaction buffer and FL-Peptide 22 (PerkinElmer, #760366, final concentration: 1.5 uM) were produced. The substrate solution A was added in an amount of 5 uL to lines B to 0, whereas the substrate solution B was added in an amount of 5 uL to lines A and P. The obtained mixtures were each incubated at 28° C. for 45 minutes. A reaction termination solution (100 mM HEPES (pH 7.4), 0.015% Briji-35, 40 mM EDTA, and 0.1% Coating Reagent 3) was added in an amount of 40 ul to the reaction mixture, so as to terminate the reaction.
(§3) Using EZ Reader II (Perkin Elmer), a substrate peptide was separated from a phosphorylated peptide in the reaction solution, and the product ratio (P/(P+S)) calculated from the peak (S) of the substrate peptide and the peak (P) of the phosphorylated peptide was used for evaluation. The inhibition of the test compound having each concentration was obtained by the following formula (automatically calculated using the software of EZ Reader II System). Inhibition (%)=100×(1−Ci/Co) (a) Ci: Conversion rate of a reaction of a test compound with substrate solution A−conversion rate of a reaction of DMSO with substrate solution B Co: Conversion rate of a reaction of DMSO with substrate solution A−conversion rate of a reaction of DMSO with substrate solution B
(§4) Based on the inhibition rates of the test compound at 12 different concentrations according to the formula (a), a 4-parameter logistic regression curve was drawn. At this time, the 4-parameter logistic regression equation is expressed as follows. Inhibition (%)=Bottom+(Top−Bottom)/(1+(X/IC50)^^slope) (b) Top: Upward asymptote Slope: Slope parameter IC50: Value X of (Top+Bottom)/2 Bottom: Downward asymptote X: Concentration of test compound
(§5) First, any given initial values are inputted into Top, Slope, IC50, Bottom (Top=100, Slope=−1, IC50=approx. IC50, and Bottom=0), so that a regression curve was drawn. Subsequently, a least-squares method was executed to the sum of squares of a difference between the measured value and the estimated value obtained from formula (b) to calculate the coefficient of the 4-parameter logistic regression equation, so as to calculate IC50.

[3] = target: RET recombinant protein (RET-wild type) (Homo sapiens (Human), UniProt P07949); assay: Evaluation of RET kinase inhibiting activity (cell-free system), mobility shift assay; type: biochemical
RET recombinant protein (RET-wild type), sequence (P07949 29-1114): as the sequence (P07949 29-1114 V804L) above, with L776V counted along it
Protocol: as §2, §3, §4, §5

RET-wild type, sequence (P07949 29-1114): as the sequence (P07949 29-1114 V804L) above, with L776V counted along it

COc1cc2cc(-c3ccc(CC(=O)Nc4cc(C(C)(C)C(F)(F)F)no4)cn3)cnc2cc1OC [Example 3, 2-[6-(6,7-Dimethoxyquinolin-3-yl)pyridin-3-yl]-N-[3-(1,1,1-trifluoro-2-methylpropan-2-yl)-1,2-oxazol-5-yl]acetamide]
IC50 (RET-wild type): 4 nM
inhibition of pRET in Ba/F3-RET tumors ([1]; 10 mg/kg oral): clearly inhibited
Relative phosphorylation of RET (%) in Ba/F3-RET tumors ([1]; Dose: 10 mg/kg oral, six hours after administration, relative to vehicle): 6%
IC50 (RET-V804L): 15 nM
IC50 ([2]; cell-free system, ATP 1 mM, read-out: RET-V804L IC50): 6.3 nM
IC50 ([2]; non-cell system, read-out: Biochemical assay (non-cell system) IC50 (nM) RET-V804L): 6.3 nM
IC50 ([3]; cell-free system, ATP 1 mM, read-out: RET-wild type IC50): 4.6 nM
IC50 ([3]; non-cell system, read-out: Biochemical assay (non-cell system) IC50 (nM) RET-WT): 4.6 nM
